Literature values in patent US11033613B2, “Methods and compositions for treating cancer” (Memorial Sloan Kettering Cancer Center, priority 2015, dated 2021).

Test system: CD4+ and CD8+ responses
Details: according to data from preclinical and phase 1 studies

SGQAYMFPNAPYLPSCLES [WT1-122A1 long]
stimulation of CD4+ and CD8+ responses: stimulate both CD4+ and CD8+ responses
